Source: PMC6264139, “Schiff Bases of Indoline-2,3-dione: Potential Novel Inhibitors of Mycobacterium Tuberculosis (Mtb) DNA Gyrase ^†” (Molecules, 2011)

| SMILES | melting point |
| --- | --- |
| O=C1Nc2ccc(Cl)cc2/C1=N/NC(=O)c1ccncc1 [Compound 4, (Z)-N'-(5-Chloro-2-oxoindolin-3-ylidene)isonicotinohydrazide] | 345 to 348 °C |
| O=C1Nc2ccc(F)cc2/C1=N/NC(=O)c1ccncc1 [Compound 5, (Z)-N'-(5-Fluoro-2-oxoindolin-3-ylidene)isonicotinohydrazide] | 346 to 348 °C |
| Cc1ccc2c(c1)/C(=N/NC(=O)c1ccncc1)C(=O)N2 [Compound 6, (Z)-N'-(5-Methyl-2-oxoindolin-3-ylidene)isonicotinohydrazide] | 319 to 322 °C |
| O=C1Nc2ccc(OC(F)(F)F)cc2/C1=N/NC(=O)c1ccncc1 [Compound 7, (Z)-N'-(2-Oxo-5-(trifluoromethoxy)indolin-3-ylidene)isonicotinohydrazide] | 262 to 265 °C |
| O=C1Nc2ccc([N+](=O)[O-])cc2/C1=N/NC(=O)c1ccncc1 [Compound 8, (Z)-N'-(5-Nitro-2-oxoindolin-3-ylidene)isonicotinohydrazide] | 350 to 353 °C |
| O=C(N/N=C1\C(=O)N(c2ccccc2)c2ccccc21)c1ccncc1 [Compound 9, (Z)-N'-(2-Oxo-1-phenylindolin-3-ylidene)isonicotinohydrazide] | 201 to 205 °C |
| O=C(N/N=C1\C(=O)N(Cc2ccccc2)c2ccc(Cl)cc21)c1ccncc1 [Compound 11, (Z)-N'-(1-Benzyl-5-chloro-2-oxoindolin-3-ylidene)isonicotinohydrazide] | 167 to 171 °C |
| O=C(N/N=C1\C(=O)N(Cc2ccccc2)c2ccc(F)cc21)c1ccncc1 [Compound 12, (Z)-N'-(1-Benzyl-5-fluoro-2-oxoindolin-3-ylidene)isonicotinohydrazide] | 188 to 192 °C |
| Cc1ccc2c(c1)/C(=N/NC(=O)c1ccncc1)C(=O)N2Cc1ccccc1 [Compound 13, (Z)-N'-(1-Benzyl-5-methyl-2-oxoindolin-3-ylidene)isonicotinohydrazide] | 159 to 162 °C |
| O=C1Nc2ccccc2/C1=N/NC(=O)c1cccnc1 [Compound 14, (Z)-N'-(2-Oxoindolin-3-ylidene)nicotinohydrazide] | 254 to 256 °C |
| O=C1Nc2ccc(F)cc2/C1=N/NC(=O)c1ccco1 [Compound 15, (Z)-N'-(5-Fluoro-2-oxoindolin-3-ylidene)furan-2-carbhydrazide] | 310 to 312 °C |
| O=C1Nc2ccccc2/C1=N/NC(=O)c1ccc([N+](=O)[O-])o1 [Compound 16, (Z)-5-Nitro-N'-(2-Oxoindolin-3-ylidene)furan-2-carbohydrazide] | 309 to 311 °C |
| O=C1Nc2ccc(Cl)cc2/C1=N/NC(=O)c1cc2ccccc2o1 [Compound 17, (Z)-N'-(5-Chloro-2-oxoindolin-3-ylidene)benzofuran-2-carbohydrazide] | 335 to 338 °C |
| Cc1ccc2c(c1)/C(=N/NC(=O)c1cc3ccccc3o1)C(=O)N2 [Compound 18, (Z)-N'-(5-Methyl-2-oxoindolin-3-ylidene)benzofuran-2-carbohydrazide] | 331 to 336 °C |
| O=C1Nc2ccc([N+](=O)[O-])cc2/C1=N/NC(=O)c1cc2ccccc2o1 [Compound 19, (Z)-N'-(5-Nitro-2-oxoindolin-3-ylidene)benzofuran-2-carbohydrazide] | 367 to 369 °C |
| O=C(N/N=C1\C(=O)N(c2ccccc2)c2ccccc21)c1cc2ccccc2o1 [Compound 20, (Z)-N'-(2-Oxo-1-phenylindolin-3-ylidene)benzofuran-2-carbohydrazide] | 235 to 238 °C |
| O=C1Nc2ccc(F)cc2/C1=N/NC(=O)c1cc2cc([N+](=O)[O-])ccc2o1 [Compound 21, (Z)-N'-(5-Fluoro-2-oxoindolin-3-ylidene)-5-nitrobenzofuran-2-carbhydrazide] | 357 to 359 °C |
| O=C1/C(=N\NC(=O)C23CC4CC(CC(C4)C2)C3)c2ccccc2N1c1ccccc1 [Compound 22, (Z)-N'-(2-oxo-1-phenylindolin-3-ylidene)adamantane-1-carbohydrazide] | 201 to 203 °C |
| Cc1cccc(Nc2ccccc2C(=O)N/N=C2\C(=O)N(Cc3ccccc3)c3ccccc32)c1C [Compound 23, (Z)-N'-(1-Benzyl-2-oxoindolin-3-ylidene)-2-(2,3-dimethylphenylamino)benzohydrazide] | 286 to 288 °C |
| Cc1ccc2c(c1)/C(=N/NC(=O)c1ccccc1Nc1c(Cl)ccc(C)c1Cl)C(=O)N2 [Compound 24, (Z)-2-(2,6-Dichloro-3-methylphenylamino)-N'-(5-methyl-2-oxoindolin-3-ylidene)-benzohydrazide] | 283 to 287 °C |
| O=C1Nc2ccc(OC(F)(F)F)cc2/C1=N/NC(=O)c1ccccc1Nc1cccc(C(F)(F)F)c1 [Compound 25, (Z)-N'-(2-Oxo-5-(trifluoromethoxy)indolin-3-ylidene)-2-(3-(trifluoromethyl)phenylamino)-benzo-hydrazide] | 226 °C |
| CCn1cc(C(=O)N/N=C2\C(=O)Nc3ccc(F)cc32)c(=O)c2ccc(C)nc21 [Compound 26, (Z)-1-Ethyl-N'-(5-fluoro-2-oxoindolin-3-ylidene)-7-methyl-4-oxo-1,4-dihydro-1,8-naphthyridine-3-carbohydrazide] | > 360 °C |
